According to patent US11142504B2, “Substituted heterocycles as c-MYC targeting agents” (Northwestern University, priority 2016, dated 2021):

The compounds below were run on MycCap cells (assay: Cell viability of MycCap cells). Conditions: Mus musculus, Myc-CaP.
Assay type: cell-based

Point of comparison: C#CCOc1ccc(COc2ccc(-c3cc(C(F)(F)F)n[nH]3)c(O)c2-c2cc(C(F)(F)F)cc(C(F)(F)F)c2)cc1 [NUCC-0201219], IC50 9.5 µM. Against it:
- Cn1nc(C(F)(F)F)cc1-c1ccc(OCc2ccc(Cl)cc2)c(Br)c1O [NUCC-0198407] — within 1.5-fold, 7.8 µM
- Oc1cc(OCc2ccc(Cl)cc2)ccc1-c1n[nH]cc1-c1ccoc1 [NUCC-0198322] — within 1.5-fold, 6.5 µM
- CC(C)CCOc1ccc(-c2cc(C(F)(F)F)nn2C)c(O)c1-c1cncc(C(F)(F)F)c1 [NUCC-0201206] — 1.9-fold lower, 5 µM
- Oc1cc(OCc2ccc(Cl)cc2)ccc1-c1cc(C(F)(F)F)[nH]n1 [NUCC-0196313] — 2.3-fold lower, 4.2 µM
- Oc1cc(OCc2ccc(Cl)cc2)ccc1-c1n[nH]cc1-c1cccc(Cl)c1 [NUCC-0196350] — 2.2-fold lower, 4.3 µM
- O=C1CCC(N2C(=O)c3cccc(OCc4cn(CCOCCOCCOCCOCC(=O)Nc5ccc(COc6ccc(-c7cc(C(F)(F)F)n[nH]7)c(O)c6-c6cc(C(F)(F)F)cc(C(F)(F)F)c6)cc5)nn4)c3C2=O)C(=O)N1 (stereo not drawn) [NUCC-0201203] — 3.4-fold higher, 32.4 µM
- N#Cc1ccc(-c2c(OCc3ccc(Cl)cc3)ccc(-c3cc(C(F)(F)F)[nH]n3)c2O)cc1 [NUCC-0198391] — 2.8-fold lower, 3.4 µM
- Cn1nc(-c2ccc(OCc3ccc(Cl)cc3)c(-c3cc(C(F)(F)F)cc(C(F)(F)F)c3)c2O)cc1C(F)(F)F [NUCC-0196360] — 4.2-fold higher, 39.6 µM
- CCc1ccc(Oc2c(-c3ccc(OCCc4ccc(Cl)cc4)cc3O)n[nH]c2C(F)(F)F)cc1 [NUCC-0196357] — within 1.5-fold, 6.9 µM
- COc1ccc(-c2c(-c3ccc(OCc4ccc(Cl)cc4)cc3O)n[nH]c2C(F)(F)F)cc1 [NUCC-0196312] — 2-fold lower, 4.8 µM
- Cn1nc(-c2ccc(OCc3ccc(Cl)cc3)c(-c3ccc(F)cc3)c2O)cc1C(F)(F)F [NUCC-0196348] — 12-fold higher, 110 µM
- N#Cc1cccc(-c2c(OCc3ccc(Cl)cc3)ccc(-c3cc(C(F)(F)F)[nH]n3)c2O)c1 [NUCC-0198398] — 2.2-fold lower, 4.3 µM
- CCc1ccc(Oc2c(-c3ccc(OCc4ccc(Cl)c(Cl)c4)cc3O)n[nH]c2C(F)(F)F)cc1 [NUCC-0196355] — within 1.5-fold, 11.8 µM
- CCCCOc1ccc(-c2cc(C(F)(F)F)nn2C)c(O)c1-c1cncc(C(F)(F)F)c1 [NUCC-0201204] — 2.4-fold higher, 23 µM
- CCc1ccc(Oc2c(-c3ccc(OCc4cccc(Cl)c4)cc3O)n[nH]c2C(F)(F)F)cc1 [NUCC-0196295] — within 1.5-fold, 12.2 µM
- COc1ccc(-c2cc(C(F)(F)F)n(C)n2)c(O)c1-c1cc(C(F)(F)F)cc(C(F)(F)F)c1 [NUCC-0201221] — 7.9-fold lower, 1.2 µM
- Cn1nc(C(F)(F)F)cc1-c1ccc(OCc2ccc(Cl)cc2)c(-c2cccc(C(F)(F)F)c2)c1O [NUCC-0200974] — within 1.5-fold, 10.2 µM
- CCc1ccc(Oc2c(-c3ccc(OCCc4cccc(C(F)(F)F)c4)cc3O)n[nH]c2C(F)(F)F)cc1 [NUCC-0176245] — 2.3-fold lower, 4.1 µM
- COc1ccc(-c2c(-c3ccc(OCc4ccc(Cl)cc4)cc3O)n[nH]c2C(F)(F)F)cc1OC [NUCC-0196283] — 4.1-fold lower, 2.3 µM
- CCOc1ncc(C(F)(F)F)cc1-c1c(OCc2ccc(Cl)cc2)ccc(-c2cc(C(F)(F)F)n[nH]2)c1O [NUCC-0201039] — within 1.5-fold, 13.6 µM
- NC(=O)c1ccc(-c2c(OCc3ccc(Cl)cc3)ccc(-c3cc(C(F)(F)F)[nH]n3)c2O)cc1 [NUCC-0198394] — within 1.5-fold, 7.3 µM
- C#CCC(N=[N+]=[N-])C(=O)Nc1ccc(COc2ccc(-c3cc(C(F)(F)F)n(C)n3)c(O)c2-c2cncc(C(F)(F)F)c2)cc1 (stereo not drawn) [NUCC-0201699] — 2.6-fold higher, 24.3 µM
- Oc1cc(OCc2ccc(Cl)cc2)ccc1-c1n[nH]cc1-c1cc(C(F)(F)F)cc(C(F)(F)F)c1 [NUCC-0198318] — 2.2-fold lower, 4.3 µM
- Cc1ccc(-c2c(OCc3ccc(Cl)cc3)ccc(-c3cc(C(F)(F)F)[nH]n3)c2O)cc1 [NUCC-0196344] — within 1.5-fold, 6.6 µM
- Cc1cc(C)c(-c2c[nH]nc2-c2ccc(OCc3ccc(Cl)cc3)cc2O)c(C)c1 [NUCC-0198359] — within 1.5-fold, 7.6 µM
- CCc1ccc(Oc2c(-c3ccc(O)cc3O)n[nH]c2C(F)(F)F)cc1 [NUCC-0198406] — 1.8-fold higher, 17.5 µM
